This experiment concerns BDF1 mice, P388 leukemia ip, median survival T/C. Briefly: NCI In Vivo Anticancer Drug Screen. Data for tumor model P388 Leukemia (intraperitoneal) in B6D2F1 (BDF1) mice. As to conditions: endpoint: median survival time, higher = longer survival. In a few lines: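 Reported as T/C, where T is the survival measurement in dosed animals and C the same measurement in vehicle controls.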

Where [1] appears, read: dose: 100.0 mg/kg/injection, schedule: Q01DX009 (ip), vehicle: saline with Tween-80.
Setting [2] is: dose: 200.0 mg/kg/injection, schedule: Q01DX009 (ip), vehicle: saline with Tween-80.

Values joined by “and” are separate entries in the source; they are usually repeats but may differ in a detail not shown here. Equal entries are not always repeated. Toxic doses and inconclusive results are not listed.

On to `COc1cc(/C=N/NC(=O)c2cccs2)cc(OC)c1OC`, for which the T/C is 90 % of control (dose: 100.0 mg/kg/injection, schedule: Q04DX003 (ip), vehicle: saline with Tween-80); 90 % of control (dose: 200.0 mg/kg/injection, schedule: Q04DX003 (ip), vehicle: saline with Tween-80); 100 % of control (dose: 400.0 mg/kg/injection, schedule: Q04DX003 (ip), vehicle: saline with Tween-80).

Consider `COC(=O)C(Cc1cnc2nc(N)nc(N)c2n1)C(=O)OC`, for which the T/C reads like this: (dose: 1.56 mg/kg/injection, schedule: Q01DX009 (ip), vehicle: water) 100 % of control; (dose: 3.13 mg/kg/injection, schedule: Q01DX009 (ip), vehicle: water) 90 % of control; (dose: 6.25 mg/kg/injection, schedule: Q01DX009 (ip), vehicle: water) 100 % of control; (dose: 12.5 mg/kg/injection, schedule: Q01DX009 (ip), vehicle: water) 100 % of control; (dose: 25.0 mg/kg/injection, schedule: Q01DX009 (ip), vehicle: water) 111 % of control.

Turning to `CCOC(=O)CNCc1ccc(C)cc1`, the T/C was 100 % of control (dose: 50.0 mg/kg/injection, schedule: Q01DX009 (ip), vehicle: water); 99 % of control (dose: 100.0 mg/kg/injection, schedule: Q01DX009 (ip), vehicle: water); 91 % of control (dose: 100.0 mg/kg/injection, schedule: Q04DX003 (ip), vehicle: water); 103 % of control (dose: 200.0 mg/kg/injection, schedule: Q01DX009 (ip), vehicle: water); 93 % of control (dose: 200.0 mg/kg/injection, schedule: Q04DX003 (ip), vehicle: water); 108 % of control (dose: 400.0 mg/kg/injection, schedule: Q01DX009 (ip), vehicle: water). Also, for the setting “dose: 400.0 mg/kg/injection, schedule: Q04DX003 (ip), vehicle: water”, the T/C was 100 % of control.

For the compound `C=C(C)C(=O)O[C@@H]1C[C@@]2(C)O[C@@H]2C[C@H](O)/C(C)=C/[C@H]2OC(=O)C(=C)[C@@H]21`, the T/C (dose: 6.0 mg/kg/injection, schedule: Q01DX009 (ip), vehicle: saline + alcohol) is 113 % of control; the T/C (dose: 12.0 mg/kg/injection, schedule: Q01DX009 (ip), vehicle: saline + alcohol) is 109 % of control; the T/C (dose: 48.0 mg/kg/injection, schedule: Q01DX009 (ip), vehicle: saline + alcohol) was 113 % of control.

In the case of `COC1C(OC(=O)c2ccc(C)[nH]2)C(O)C(Oc2ccc3c(O)c(NC(=O)c4c[nH]c(C(=O)Nc5c(O)c6ccc(OC7OC(C)(C)C(OC)C(OC(=O)c8ccc(C)[nH]8)C7O)c(C)c6oc5=O)c4C)c(=O)oc3c2C)OC1(C)C` (centres undefined), the T/C reads like this: under setting [1], 90 % of control; under setting [2], 109 % of control; (dose: 400.0 mg/kg/injection, schedule: Q01DX009 (ip), vehicle: saline with Tween-80) 163 % of control.

In the case of `CN1CCN(c2ccc([N+](=O)[O-])c3nonc23)CC1`, the T/C runs as follows: (dose: 10.0 mg/kg/injection, schedule: Q01DX009 (ip), vehicle: saline with Tween-80) 100 % of control; (dose: 20.0 mg/kg/injection, schedule: Q01DX009 (ip), vehicle: saline with Tween-80) 100 % of control; (dose: 20.0 mg/kg/injection, schedule: Q04DX003 (ip), vehicle: saline with Tween-80) 100 % of control; (dose: 40.0 mg/kg/injection, schedule: Q01DX009 (ip), vehicle: saline with Tween-80) 99 % of control; (dose: 40.0 mg/kg/injection, schedule: Q04DX003 (ip), vehicle: saline with Tween-80) 92 % of control.

Regarding `CC1(C)COCN1COC1CCCCC1`, the T/C under setting [2] is 90 % of control.

Take `CC(=O)N(C)c1ccc(N)cc1`: the T/C runs as follows: (dose: 100.0 mg/kg/injection, schedule: Q04DX003 (ip), vehicle: saline) 100 % of control; (dose: 200.0 mg/kg/injection, schedule: Q04DX003 (ip), vehicle: saline) 100 % of control; (dose: 400.0 mg/kg/injection, schedule: Q04DX003 (ip), vehicle: saline) 109 % of control.

With `O=C(c1ccccc1)C(O)(CC(c1ccccc1)[P+](c1ccccc1)(c1ccccc1)c1ccccc1)c1ccccc1` (centres undefined), the T/C runs as follows: (dose: 0.87 mg/kg/injection, schedule: Q01DX009 (ip), vehicle: saline) 108 % of control; (dose: 3.12 mg/kg/injection, schedule: Q01DX009 (ip), vehicle: Klucel (hydroxypropylcellulose) (HPC)) 122 % of control; (dose: 3.5 mg/kg/injection, schedule: Q01DX009 (ip), vehicle: saline) 120 % of control; (dose: 6.25 mg/kg/injection, schedule: Q01DX009 (ip), vehicle: Klucel (hydroxypropylcellulose) (HPC)) 113 % of control; (dose: 6.25 mg/kg/injection, schedule: Q04DX003 (ip), vehicle: saline with Tween-80) 109 % of control; (dose: 12.5 mg/kg/injection, schedule: Q04DX003 (ip), vehicle: Klucel (hydroxypropylcellulose) (HPC)) 104 % of control. Besides, the T/C (dose: 12.5 mg/kg/injection, schedule: Q04DX003 (ip), vehicle: saline with Tween-80) is 118 % of control.

As to `CC(=O)O[C@H]1CC[C@@]2(C)C(=CC[C@H]3[C@@H]4CC[C@H](O)[C@@]4(C)CC[C@@H]32)C1`, the T/C is 104 % of control (dose: 100.0 mg/kg/injection, schedule: Q04DX003 (ip), vehicle: Klucel (hydroxypropylcellulose) (HPC)); 100 % of control (dose: 200.0 mg/kg/injection, schedule: Q04DX003 (ip), vehicle: Klucel (hydroxypropylcellulose) (HPC)); 90 % of control (dose: 400.0 mg/kg/injection, schedule: Q04DX003 (ip), vehicle: Klucel (hydroxypropylcellulose) (HPC)).

For `CCOC(=O)c1cc2nc3ccccn3c(=O)c2cc1N`, the T/C reads like this: under setting [1], 100 % of control; under setting [2], 91 % of control.

For the compound `O=S(=O)(O)C1CCCCC1O` (centres undefined), the T/C was 98 % of control (dose: 100.0 mg/kg/injection, schedule: Q04DX002 (ip), vehicle: saline with Tween-80) and 101 % of control (dose: 200.0 mg/kg/injection, schedule: Q04DX002 (ip), vehicle: saline with Tween-80).

`CS(=O)(=O)OCCN(CCOS(C)(=O)=O)c1ccc(N=O)cc1`: the T/C was 122 % of control (dose: 0.5 mg/kg/injection, schedule: Q01DX010 (ip), vehicle: saline); 104 % of control (dose: 1.0 mg/kg/injection, schedule: Q01DX010 (ip), vehicle: saline); 86 % of control and 113 % of control (dose: 2.0 mg/kg/injection, schedule: Q01DX010 (ip), vehicle: saline); 158 % of control (dose: 62.5 micrograms/kg/injection, schedule: Q01DX010 (ip), vehicle: saline); 166 % of control (dose: 125.0 micrograms/kg/injection, schedule: Q01DX010 (ip), vehicle: saline).

Consider `CC1OC(OC2C(CO)OC(O[C@H]3CC[C@@]4(C)C(=CC[C@H]5[C@@H]6C[C@@H]7O[C@@]8(CC[C@H](C)CN8)[C@@H](C)[C@@H]7[C@@]6(C)CC[C@@H]54)C3)C(OC3OC(C)C(O)C(O)C3O)C2O)C(O)C(O)C1O` (some centres undefined), for which the T/C is 95 % of control and 100 % of control (dose: 2.5 mg/kg/injection, schedule: Q01DX009 (ip), vehicle: water); 109 % of control (dose: 5.0 mg/kg/injection, schedule: Q01DX009 (ip), vehicle: water); 100 % of control and 104 % of control (dose: 10.0 mg/kg/injection, schedule: Q01DX009 (ip), vehicle: water); 95 % of control and 100 % of control (dose: 20.0 mg/kg/injection, schedule: Q01DX009 (ip), vehicle: water).

For the compound `O=C(c1ccccc1)c1ccccc1`, the T/C is 100 % of control (dose: 100.0 mg/kg/injection, schedule: Q01DX001 (ip), vehicle: Klucel (hydroxypropylcellulose) (HPC)); 100 % of control (dose: 200.0 mg/kg/injection, schedule: Q01DX001 (ip), vehicle: Klucel (hydroxypropylcellulose) (HPC)); 116 % of control (dose: 400.0 mg/kg/injection, schedule: Q01DX001 (ip), vehicle: Klucel (hydroxypropylcellulose) (HPC)).

As to `COc1cc([C@@H]2c3cc4c(c(OC)c3C[C@H]3COC(=O)[C@@H]32)OCO4)cc(OC)c1OC`, the T/C is 105 % of control (dose: 12.5 mg/kg/injection, schedule: Q01DX001 (ip), vehicle: other); 172 % of control (dose: 12.5 mg/kg/injection, schedule: Q01DX010 (ip), vehicle: saline); 100 % of control (dose: 25.0 mg/kg/injection, schedule: Q01DX001 (ip), vehicle: saline); 104 % of control (dose: 25.0 mg/kg/injection, schedule: Q01DX010 (ip), vehicle: saline); 113 % of control (dose: 50.0 mg/kg/injection, schedule: Q01DX001 (ip), vehicle: saline); 90 % of control (dose: 50.0 mg/kg/injection, schedule: Q01DX010 (ip), vehicle: other). The T/C by setting is: (dose: 100.0 mg/kg/injection, schedule: Q01DX001 (ip), vehicle: saline) 113 % of control; (dose: 200.0 mg/kg/injection, schedule: Q01DX001 (ip), vehicle: saline) 118 % of control.
